Key:
glucocorticoid receptor = molecular target: T1, glucocorticoid receptor (Homo sapiens, UniProt P04150); details: cited from earlier work
T1 sequence (P04150 1-777): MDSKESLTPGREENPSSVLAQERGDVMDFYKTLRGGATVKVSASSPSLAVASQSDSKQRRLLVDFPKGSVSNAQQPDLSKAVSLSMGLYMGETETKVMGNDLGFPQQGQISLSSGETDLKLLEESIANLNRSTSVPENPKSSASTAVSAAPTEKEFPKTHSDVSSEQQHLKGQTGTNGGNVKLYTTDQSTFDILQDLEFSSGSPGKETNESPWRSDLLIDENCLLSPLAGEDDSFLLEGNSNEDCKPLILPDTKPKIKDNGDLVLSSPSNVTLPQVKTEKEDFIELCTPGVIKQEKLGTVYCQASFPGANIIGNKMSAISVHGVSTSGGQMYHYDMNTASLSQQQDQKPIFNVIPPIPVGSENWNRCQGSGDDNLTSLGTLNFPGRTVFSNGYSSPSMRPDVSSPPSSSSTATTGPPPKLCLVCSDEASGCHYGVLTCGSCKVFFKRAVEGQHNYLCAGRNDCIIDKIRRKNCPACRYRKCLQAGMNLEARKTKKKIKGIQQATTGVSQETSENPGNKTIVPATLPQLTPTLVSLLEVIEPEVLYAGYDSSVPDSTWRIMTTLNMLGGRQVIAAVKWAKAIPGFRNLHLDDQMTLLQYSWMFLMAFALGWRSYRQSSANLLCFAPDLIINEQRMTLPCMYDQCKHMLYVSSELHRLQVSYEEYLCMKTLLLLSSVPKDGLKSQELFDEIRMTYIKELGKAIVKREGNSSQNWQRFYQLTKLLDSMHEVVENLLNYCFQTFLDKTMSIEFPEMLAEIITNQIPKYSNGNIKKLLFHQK

rat PMVEC = assay: Gamma-retroviral infection efficiency of PMVEC (percent fluorescent cells by FACS); assay type: cell-based; details: for Retroviral infectivity versus control: increasing concentrations, Org 34517 0.1-30 μmol/L
Description: Cell cultures: Phoenix Retroviral Expression System ecotropic and amphotropic packaging cells were purchased from Orbigen, Inc. (San Diego, Calif.). […] Rat pulmonary microvascular endothelial cells (PMVEC), were obtained from our cell culture core at the University of South Alabama (King J, et al. Structural and functional characteristics of lung macro and microvascular endothelial phenotypes. Microvascular Res. 2004, March, 67(2). 139-151). Human glioblastoma cells (U87MG), and human mammary carcinoma cells (T47D) were obtained from ATCC. All cells were cultured in DMEM, 10% FBS, 2 mmol L-Glutamine and used for experiments at passages 4-9. All cells were grown in humidified incubators at 37° C. in 5% CO2. Cells were harvested by 0.05% trypsin/0.53 mM EDTA digestion, washed, re-suspended in cultured medium and analyzed directly by FACScan in the University of South Alabama Flow Cytometry Core. For cell cycle analysis cellular DNA was stained with […] of propridium iodide for 20 minutes as described elsewhere (48) and then analyzed by FACScan.
Vectors and delivery systems: pBMN-GFP (Orbigen, Inc., San Diego, Calif.), a retroviral vector that expresses GFP driven by the MMLV's promoter in Phoenix and other cells was used. In some experiments Murine Stem Cell Virus (MSCV) expressing mCherry and the hybrid retroviral vector Friend Murine Embryonic-stem cell Virus (FMEV) [for Friend Mink Cell Focus-forming (FMCF)/Murine Embryonic Stem cell Virus (MESV)](31) expressing DsRed2 were used in addition to MMLV. Two lentiviral vectors pLemiR (Open Biosystems, Huntsville, Ala.) and pLVX-DsRed-Monomer-C1 (Clontech Laboratories, Inc., Mountain View, Calif.) harboring turboRFP and DsRed as reporters were also used for comparison to gamma-retroviruses. Packaging cells were transfected with retroviral vectors using FuGENE 6 reagent following the manufacturer's instructions. For virus propagation, packaging cells were cultured in growth medium for 12-18 hours. Virus was collected with cultured medium, filtered, supplemented with hexadimethrine bromide (polybrene) to a final concentration of 4 μg/ml and applied directly to target cells.
Gamma-retroviral backbones containing genes encoding fluorescent proteins as reporters were propagated in Phoenix ecotropic packaging cells. Viral-conditioned supernatant was collected and applied to target cells (rat pulmonary microvascular endothelial cells, PMVEC).

Phoenix cells and PMVEC = assay: Cell growth and survival of packaging and target cells
[1] = test system: rat pulmonary microvascular endothelial cells (PMVEC); assay: Percent GFP-positive (infected) target cells after conditioned medium from Phoenix cells; assay type: cell-based; details: conditioned medium from Phoenix cells grown with dexamethasone, plateau at 10 nmol
progesterone receptor = molecular target: T2, progesterone receptor (Homo sapiens, UniProt P06401); details: cited from earlier work
T2 sequence (P06401 1-933): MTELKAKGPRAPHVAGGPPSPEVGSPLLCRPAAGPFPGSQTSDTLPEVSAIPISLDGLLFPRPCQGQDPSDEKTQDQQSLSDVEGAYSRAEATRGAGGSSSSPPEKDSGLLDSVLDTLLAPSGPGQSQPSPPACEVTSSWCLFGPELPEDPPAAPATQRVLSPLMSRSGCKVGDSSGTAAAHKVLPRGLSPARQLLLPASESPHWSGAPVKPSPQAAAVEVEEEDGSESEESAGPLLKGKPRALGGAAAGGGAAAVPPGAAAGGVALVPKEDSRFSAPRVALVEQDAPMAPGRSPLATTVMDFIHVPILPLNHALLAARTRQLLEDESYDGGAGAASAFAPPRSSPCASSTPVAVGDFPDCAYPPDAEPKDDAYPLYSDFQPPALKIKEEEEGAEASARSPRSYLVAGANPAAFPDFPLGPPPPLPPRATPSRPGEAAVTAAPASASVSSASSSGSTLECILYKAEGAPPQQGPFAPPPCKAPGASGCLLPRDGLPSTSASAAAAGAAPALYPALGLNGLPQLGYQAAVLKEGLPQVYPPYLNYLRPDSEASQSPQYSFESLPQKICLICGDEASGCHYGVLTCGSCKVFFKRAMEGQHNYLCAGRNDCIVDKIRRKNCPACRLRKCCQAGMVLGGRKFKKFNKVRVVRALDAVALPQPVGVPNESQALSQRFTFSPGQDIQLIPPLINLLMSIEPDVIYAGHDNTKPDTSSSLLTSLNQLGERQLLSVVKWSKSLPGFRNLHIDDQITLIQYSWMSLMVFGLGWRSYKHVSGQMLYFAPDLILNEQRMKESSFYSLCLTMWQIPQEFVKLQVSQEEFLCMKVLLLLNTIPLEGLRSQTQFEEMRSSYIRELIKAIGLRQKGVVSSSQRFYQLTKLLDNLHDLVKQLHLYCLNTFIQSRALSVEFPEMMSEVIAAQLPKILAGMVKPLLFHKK

Structure (SMILES)	IC50 (glucocorticoid receptor) [nM]	Potency in increasing retroviral infectivity relative to mifepristone (rat PMVEC)	Retroviral infectivity versus control (rat PMVEC)	Cell growth (Phoenix cells and PMVEC; over 7 days, retrovirus producing or target cells (data not shown))	Adverse effects on cell growth or survival (Phoenix cells and PMVEC; packaging or target cells)	Percentage of GFP-positive (infected) PMVEC [1] [%]	IC50 (progesterone receptor) [nM]
CC#C[C@]1(O)CC[C@H]2[C@@H]3CCC4=CC(=O)CCC4=C3[C@@H](c3ccc4c(c3)OCO4)C[C@@]21C [Org 34517]	17.9	less potent than mifepristone	significantly increased	–	–	–	–
C[C@@H]1C[C@H]2[C@@H]3CCC4=CC(=O)C=C[C@]4(C)[C@@]3(F)[C@@H](O)C[C@]2(C)[C@@]1(O)C(=O)CO [dexamethasone, Dexamethasone]	–	–	–	no effect	did not cause any evident adverse effects	45	–
C=C1OC(CC)=NC12CCC1C3CCC4=CC(=O)CCC4=C3C(c3ccc(C(C)=O)cc3)CC12C (centres unmarked) [7453-102, 11b-[4-(acetyl)phenyl)-4′,5′-dihydro-2′-ethyl-5′-methylenespiro[estra-4,9-dien-17b,4′-oxazole]-3-one]	–	–	no effect	–	–	–	0.34

— patent publication US20120028358A1, “METHOD FOR INCREASING RETROVIRAL INFECTIVITY” (priority 2010, published 2012)
